Patent US20240228504A1, “SUBSTITUTED TRICYCLIC AMIDES, ANALOGUES THEREOF, AND METHODS USING SAME” (Arbutus Biopharma Corporation, priority 2020, published 2024)
pEC50: −log10 of the molar value.

system: HBV rcDNA in HepDE19 cells; assay: HepDE19 assay with bDNA quantitation of HBV rcDNA; format: cell-based, hepatitis B virus; details: HepDE19 assay, inhibition of rcDNA formation, bDNA quantitation; read-out: DE-19bDNA EC50

SMILES | pEC50
CN(C(=O)c1cc2ccccc2[nH]1)C1COCc2[nH]c(=O)c3cc(F)ccc3c21 (single isomer, unassigned) [Compound 1, N-(8-Fluoro-6-oxo-1,4,5,6-tetrahydro-2H-pyrano[3,4-c]isoquinolin-1-yl)-N-methyl-1H-indole-2-carboxamide] | 5.07
CN(C(=O)c1cc2ccccc2[nH]1)C1COCc2[nH]c(=O)c3cc(F)ccc3c21 (single isomer, unassigned) [Compound 2, N-(8-Fluoro-6-oxo-1,4,5,6-tetrahydro-2H-pyrano[3,4-c]isoquinolin-1-yl)-N-methyl-1H-indole-2-carboxamide] | 7.70
CN(C(=O)C1Cc2cc(F)ccc2N1)C1COCc2[nH]c(=O)c3cc(F)c(F)cc3c21 (single isomer, unassigned) [Compound 5, N-(8,9-Difluoro-6-oxo-1,4,5,6-tetrahydro-2H-pyrano[3,4-c]isoquinolin-1-yl)-5-fluoro-N-methylindoline-2-carboxamide] | 7.70
CN(C(=O)C1Cc2cc(F)ccc2N1)C1COCc2[nH]c(=O)c3cc(F)c(F)cc3c21 (single isomer, unassigned) [Compound 6, N-(8,9-Difluoro-6-oxo-1,4,5,6-tetrahydro-2H-pyrano[3,4-c]isoquinolin-1-yl)-5-fluoro-N-methylindoline-2-carboxamide] | 5.02
CN(C(=O)C1Cc2cc(F)ccc2N1)C1COCc2[nH]c(=O)c3cc(F)c(F)cc3c21 (single isomer, unassigned) [Compound 7, N-(8,9-Difluoro-6-oxo-1,4,5,6-tetrahydro-2H-pyrano[3,4-c]isoquinolin-1-yl)-5-fluoro-N-methylindoline-2-carboxamide] | 8.00
CN(C(=O)C1Cc2cc(F)ccc2N1)C1COCc2[nH]c(=O)c3cc(F)c(F)cc3c21 (single isomer, unassigned) [Compound 8, N-(8,9-Difluoro-6-oxo-1,4,5,6-tetrahydro-2H-pyrano[3,4-c]isoquinolin-1-yl)-5-fluoro-N-methylindoline-2-carboxamide] | 5.85
CN(C(=O)c1cc2c(F)cccn2c1)C1COCc2[nH]c(=O)c3cc(F)c(F)cc3c21 (single isomer, unassigned) [Compound 9, N-(8,9-Difluoro-6-oxo-1,4,5,6-tetrahydro-2H-pyrano[3,4-c]isoquinolin-1-yl)-8-fluoro-N-methylindolizine-2-carboxamide] | 5.48
CN(C(=O)c1cc2c(F)cccn2c1)C1COCc2[nH]c(=O)c3cc(F)c(F)cc3c21 (single isomer, unassigned) [Compound 10, N-(8,9-Difluoro-6-oxo-1,4,5,6-tetrahydro-2H-pyrano[3,4-c]isoquinolin-1-yl)-8-fluoro-N-methylindolizine-2-carboxamide] | 8.00
CN(C(=O)c1cc2ccccn2c1)C1COCc2[nH]c(=O)c3cc(F)c(F)cc3c21 (single isomer, unassigned) [Compound 11, N-(8,9-Difluoro-6-oxo-1,4,5,6-tetrahydro-2H-pyrano[3,4-c]isoquinolin-1-yl)-N-methylindolizine-2-carboxamide] | 5.28
CN(C(=O)c1cc2ccccn2c1)C1COCc2[nH]c(=O)c3cc(F)c(F)cc3c21 (single isomer, unassigned) [Compound 12, N-(8,9-Difluoro-6-oxo-1,4,5,6-tetrahydro-2H-pyrano[3,4-c]isoquinolin-1-yl)-N-methylindolizine-2-carboxamide] | 8.00
CN(C(=O)c1cc2c(Cl)cccn2c1)C1COCc2[nH]c(=O)c3cc(F)c(F)cc3c21 (single isomer, unassigned) [Compound 17, 8-Chloro-N-(8,9-difluoro-6-oxo-1,4,5,6-tetrahydro-2H-pyrano[3,4-c]isoquinolin-1-yl)-N-methylindolizine-2-carboxamide] | 5.72
CN(C(=O)c1cc2c(Cl)cccn2c1)C1COCc2[nH]c(=O)c3cc(F)c(F)cc3c21 (single isomer, unassigned) [Compound 18, 8-Chloro-N-(8,9-difluoro-6-oxo-1,4,5,6-tetrahydro-2H-pyrano[3,4-c]isoquinolin-1-yl)-N-methylindolizine-2-carboxamide] | 8.00
CN(C(=O)c1cc2c(F)cccc2[nH]1)C1COCc2[nH]c(=O)c3cc(F)ccc3c21 (single isomer, unassigned) [Compound 19, 4-Fluoro-N-(8-fluoro-6-oxo-1,4,5,6-tetrahydro-2H-pyrano[3,4-c]isoquinolin-1-yl)-N-methyl-1H-indole-2-carboxamide] | 5.82
CN(C(=O)c1cc2c(F)cccc2[nH]1)C1COCc2[nH]c(=O)c3cc(F)ccc3c21 (single isomer, unassigned) [Compound 20, 4-Fluoro-N-(8-fluoro-6-oxo-1,4,5,6-tetrahydro-2H-pyrano[3,4-c]isoquinolin-1-yl)-N-methyl-1H-indole-2-carboxamide] | 7.70
CN(C(=O)c1cc2ccccc2[nH]1)C1COCc2[nH]c(=O)c3cc(F)c(F)cc3c21 (single isomer, unassigned) [Compound 21, N-(8,9-Difluoro-6-oxo-1,4,5,6-tetrahydro-2H-pyrano[3,4-c]isoquinolin-1-yl)-N-methyl-1H-indole-2-carboxamide] | 5.48
CN(C(=O)c1cc2ccccc2[nH]1)C1COCc2[nH]c(=O)c3cc(F)c(F)cc3c21 (single isomer, unassigned) [Compound 22, N-(8,9-Difluoro-6-oxo-1,4,5,6-tetrahydro-2H-pyrano[3,4-c]isoquinolin-1-yl)-N-methyl-1H-indole-2-carboxamide] | 8.00
CN(C(=O)c1cc2c(F)cccc2[nH]1)C1COCc2[nH]c(=O)c3cc(F)c(F)cc3c21 (single isomer, unassigned) [Compound 23, N-(8,9-Difluoro-6-oxo-1,4,5,6-tetrahydro-2H-pyrano[3,4-c]isoquinolin-1-yl)-4-fluoro-N-methyl-1H-indole-2-carboxamide] | 5.35
CN(C(=O)c1cc2c(F)cccc2[nH]1)C1COCc2[nH]c(=O)c3cc(F)c(F)cc3c21 (single isomer, unassigned) [Compound 24, N-(8,9-Difluoro-6-oxo-1,4,5,6-tetrahydro-2H-pyrano[3,4-c]isoquinolin-1-yl)-4-fluoro-N-methyl-1H-indole-2-carboxamide] | 8.40
CN(C(=O)c1cc2ccc(F)cc2[nH]1)C1COCc2[nH]c(=O)c3cc(F)c(F)cc3c21 (single isomer, unassigned) [Compound 25, N-(8,9-Difluoro-6-oxo-1,4,5,6-tetrahydro-2H-pyrano[3,4-c]isoquinolin-1-yl)-6-fluoro-N-methyl-1H-indole-2-carboxamide] | 6.09
CN(C(=O)c1cc2ccc(F)cc2[nH]1)C1COCc2[nH]c(=O)c3cc(F)c(F)cc3c21 (single isomer, unassigned) [Compound 26, N-(8,9-Difluoro-6-oxo-1,4,5,6-tetrahydro-2H-pyrano[3,4-c]isoquinolin-1-yl)-6-fluoro-N-methyl-1H-indole-2-carboxamide] | 8.00
CN(C(=O)c1cc2cc(F)ccc2[nH]1)C1COCc2[nH]c(=O)c3cc(F)c(F)cc3c21 (single isomer, unassigned) [Compound 27, N-(8,9-Difluoro-6-oxo-1,4,5,6-tetrahydro-2H-pyrano[3,4-c]isoquinolin-1-yl)-5-fluoro-N-methyl-1H-indole-2-carboxamide] | 6.43
CN(C(=O)c1cc2cc(F)ccc2[nH]1)C1COCc2[nH]c(=O)c3cc(F)c(F)cc3c21 (single isomer, unassigned) [Compound 28, N-(8,9-Difluoro-6-oxo-1,4,5,6-tetrahydro-2H-pyrano[3,4-c]isoquinolin-1-yl)-5-fluoro-N-methyl-1H-indole-2-carboxamide] | 8.40
CN(C(=O)c1cc2cc(F)ccc2[nH]1)C1COCc2[nH]c(=O)c3cc(F)ccc3c21 (single isomer, unassigned) [Compound 29, 5-Fluoro-N-(8-fluoro-6-oxo-1,4,5,6-tetrahydro-2H-pyrano[3,4-c]isoquinolin-1-yl)-N-methyl-1H-indole-2-carboxamide] | 5.82

same assay, conditions: Hepatitis B virus, HepDE19, HepDE19 assay, inhibition of rcDNA formation, bDNA quantitation; read-out: DE-19bDNA EC50

SMILES | pEC50
CN(C(=O)c1ccc(C(F)(F)F)c(F)c1)C1COCc2[nH]c(=O)c3ccccc3c21 (racemic) [Compound 132, 3-Fluoro-N-methyl-N-(6-oxo-1,4,5,6-tetrahydro-2H-pyrano[3,4-c]isoquinolin-1-yl)-4-(trifluoromethyl)benzamide] | 7.22
CN(C(=O)c1ccc(C(F)(F)F)c(F)c1)C1COCc2[nH]c(=O)c3cscc3c21 (racemic) [Compound 133, 3-Fluoro-N-methyl-N-(4-oxo-4,5,8,9-tetrahydro-6H-pyrano[3,4-b]thieno[3,4-d]pyridin-9-yl)-4-(trifluoromethyl)benzamide] | 7.22
CN(C(=O)c1ccc(C(F)(F)F)c(F)c1)C1COCc2[nH]c(=O)c3cc(C#N)ccc3c21 (racemic) [Compound 134, N-(8-Cyano-6-oxo-1,4,5,6-tetrahydro-2H-pyrano[3,4-c]isoquinolin-1-yl)-3-fluoro-N-methyl-4-(trifluoromethyl)benzamide] | 5.55
CN(C(=O)c1cc2sc(Cl)cc2[nH]1)C1COCc2[nH]c(=O)c3cc(F)ccc3c21 (racemic) [Compound 452, 2-Chloro-N-(8-fluoro-6-oxo-1,4,5,6-tetrahydro-2H-pyrano[3,4-c]isoquinolin-1-yl)-N-methyl-4H-thieno[3,2-b]pyrrole-5-carboxamide] | 7.10
Cc1cc(F)cc2[nH]c(C(=O)N(C)C3COCc4[nH]c(=O)c5cc(F)ccc5c43)cc12 (racemic) [Compound 455, 6-Fluoro-N-(8-fluoro-6-oxo-1,4,5,6-tetrahydro-2H-pyrano[3,4-c]isoquinolin-1-yl)-N,4-dimethyl-1H-indole-2-carboxamide] | 7.70
CN(C(=O)[C@@H]1Cc2ccccc2N1)C1COCc2[nH]c(=O)c3cc(F)ccc3c21 (single isomer, unassigned) [Compound 4] | 6.89
